Reference: ChEMBL document CHEMBL1201862, “PubChem BioAssay data set” (2004)
The source made the active and inactive calls.

Tests used:
[1] = biological target: T1, Sentrin-specific protease 7 (Homo sapiens, UniProt Q9BQF6); assay: SENP7 protease inhibitors, SAR follow-up, biochemical, luminescence (AID 504497); type: functional
T1 sequence (Q9BQF6 whole entry): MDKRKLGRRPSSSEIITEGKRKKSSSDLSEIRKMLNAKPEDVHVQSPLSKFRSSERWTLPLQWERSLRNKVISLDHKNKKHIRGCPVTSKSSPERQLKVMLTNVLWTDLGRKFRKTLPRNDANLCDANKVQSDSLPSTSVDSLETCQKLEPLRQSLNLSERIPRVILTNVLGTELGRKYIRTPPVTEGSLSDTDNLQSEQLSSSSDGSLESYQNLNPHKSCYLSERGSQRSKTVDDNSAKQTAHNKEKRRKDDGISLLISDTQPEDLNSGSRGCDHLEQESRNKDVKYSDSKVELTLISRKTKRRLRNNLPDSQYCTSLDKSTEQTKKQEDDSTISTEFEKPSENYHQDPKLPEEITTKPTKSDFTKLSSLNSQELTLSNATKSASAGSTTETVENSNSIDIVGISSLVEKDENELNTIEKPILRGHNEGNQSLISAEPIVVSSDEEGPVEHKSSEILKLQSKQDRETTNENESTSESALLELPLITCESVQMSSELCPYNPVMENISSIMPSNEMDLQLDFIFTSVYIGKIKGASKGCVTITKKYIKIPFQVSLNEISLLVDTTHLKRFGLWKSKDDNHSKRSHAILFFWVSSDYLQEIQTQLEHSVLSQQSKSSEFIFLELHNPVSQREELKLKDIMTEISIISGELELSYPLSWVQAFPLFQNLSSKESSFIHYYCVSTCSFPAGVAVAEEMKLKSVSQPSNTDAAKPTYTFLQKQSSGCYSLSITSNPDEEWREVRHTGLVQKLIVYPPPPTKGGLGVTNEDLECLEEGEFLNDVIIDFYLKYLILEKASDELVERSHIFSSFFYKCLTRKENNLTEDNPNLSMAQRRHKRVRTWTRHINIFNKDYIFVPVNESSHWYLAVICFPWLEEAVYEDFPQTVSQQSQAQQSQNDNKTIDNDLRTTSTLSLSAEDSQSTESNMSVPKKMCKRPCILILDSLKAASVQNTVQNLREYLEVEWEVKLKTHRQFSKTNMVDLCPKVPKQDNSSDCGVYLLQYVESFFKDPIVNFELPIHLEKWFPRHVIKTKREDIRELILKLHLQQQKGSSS

Caspase-3 [2] = biological target: T2, Caspase-3 (Homo sapiens, UniProt P42574); assay: SAR Analysis of small molecule inhibitors of Sentrin-specific proteases (SENPs) using a Caspase-3 Selectivity assay. [Related pubchem assays (depositor defined):AID2540, AID2599, AID434973, AID489001]; type: functional
T2 sequence (P42574 whole entry): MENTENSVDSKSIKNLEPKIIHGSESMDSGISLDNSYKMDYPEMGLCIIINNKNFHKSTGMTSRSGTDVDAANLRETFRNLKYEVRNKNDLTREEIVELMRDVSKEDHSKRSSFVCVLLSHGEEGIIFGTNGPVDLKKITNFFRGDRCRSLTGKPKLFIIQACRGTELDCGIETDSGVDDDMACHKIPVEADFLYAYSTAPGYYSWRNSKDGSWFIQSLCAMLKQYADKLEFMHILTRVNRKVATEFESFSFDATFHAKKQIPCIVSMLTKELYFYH

[3] = biological target: T3, Sentrin-specific protease 6 (Homo sapiens, UniProt Q9GZR1); assay: SENP6 protease inhibitors, SAR follow-up, biochemical, luminescence, set 2 (AID 588598); type: functional
T3 sequence (Q9GZR1 whole entry): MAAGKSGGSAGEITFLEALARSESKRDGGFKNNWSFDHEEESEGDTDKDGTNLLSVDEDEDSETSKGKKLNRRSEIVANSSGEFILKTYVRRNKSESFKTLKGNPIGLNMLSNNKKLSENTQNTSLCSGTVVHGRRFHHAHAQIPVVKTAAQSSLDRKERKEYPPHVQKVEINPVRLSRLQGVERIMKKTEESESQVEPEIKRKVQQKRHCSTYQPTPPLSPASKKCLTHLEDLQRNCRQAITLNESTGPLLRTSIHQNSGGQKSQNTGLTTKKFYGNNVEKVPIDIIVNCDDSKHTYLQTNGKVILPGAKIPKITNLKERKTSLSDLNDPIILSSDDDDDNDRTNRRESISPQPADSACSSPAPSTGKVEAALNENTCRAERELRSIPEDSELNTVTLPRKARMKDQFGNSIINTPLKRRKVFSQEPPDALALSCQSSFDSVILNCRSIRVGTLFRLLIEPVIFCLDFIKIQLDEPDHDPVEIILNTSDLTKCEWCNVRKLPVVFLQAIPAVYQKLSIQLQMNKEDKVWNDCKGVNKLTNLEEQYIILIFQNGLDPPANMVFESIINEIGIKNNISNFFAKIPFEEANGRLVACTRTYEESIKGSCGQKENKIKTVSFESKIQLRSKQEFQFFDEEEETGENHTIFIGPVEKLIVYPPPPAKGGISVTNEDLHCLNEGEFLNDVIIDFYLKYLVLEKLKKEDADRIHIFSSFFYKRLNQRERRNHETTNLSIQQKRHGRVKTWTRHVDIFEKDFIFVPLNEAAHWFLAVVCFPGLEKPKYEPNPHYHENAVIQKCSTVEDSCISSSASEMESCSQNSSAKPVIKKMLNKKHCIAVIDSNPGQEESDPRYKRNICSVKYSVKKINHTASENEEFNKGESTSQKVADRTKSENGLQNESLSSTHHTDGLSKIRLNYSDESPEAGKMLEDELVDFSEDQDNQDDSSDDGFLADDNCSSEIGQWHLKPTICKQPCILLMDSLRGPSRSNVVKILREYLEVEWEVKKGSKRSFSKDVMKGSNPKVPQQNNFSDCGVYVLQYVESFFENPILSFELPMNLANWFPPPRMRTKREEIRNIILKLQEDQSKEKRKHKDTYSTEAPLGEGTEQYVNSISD

[4] = biological target: T3, Sentrin-specific protease 6; assay: SAR Analysis of small molecule inhibitors of Sentrin-specific protease 6 (SENP6) using a Luminescent assay. [Related pubchem assays (depositor defined):AID2582, AID2599]; type: functional
Caspase-3 [5] = biological target: T2, Caspase-3; assay: caspase-3 inhibitors as off-family protease, SAR follow-up, selectivity assay for SENP protease inhibitor project, biochemical, luminescence, set 2 (AID 588599); type: functional
[6] = biological target: T4, Sentrin-specific protease 8 (Homo sapiens, UniProt Q96LD8); assay: SENP8 protease inhibitors, SAR follow-up, biochemical, luminescence (AID 504501); type: functional
T4 sequence (Q96LD8 whole entry): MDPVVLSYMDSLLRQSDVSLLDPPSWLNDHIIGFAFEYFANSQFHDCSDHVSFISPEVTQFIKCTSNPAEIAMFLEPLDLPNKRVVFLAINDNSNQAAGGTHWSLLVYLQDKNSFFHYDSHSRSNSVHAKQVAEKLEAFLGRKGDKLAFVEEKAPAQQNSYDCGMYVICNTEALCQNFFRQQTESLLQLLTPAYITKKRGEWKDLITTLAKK

[7] = biological target: T4, Sentrin-specific protease 8; assay: SENP8 protease inhibitors, SAR follow-up, biochemical, luminescence, set 2 (AID 588601); type: functional
Streptococcus = assay: Group A Streptococcus viability loss, dose response, counter-screen for streptokinase expression inhibitor project, luminescence, BacTiterGlo (AID 1915); type: functional, organism-based;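 further: potency for reduction of bacterial viability or growth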
[8] = cytotoxicity toward DRD oncogenic fibroblasts, dose response, cell-based, non-viral oncogenic, luminescence (AID 1934); type: functional; details: Homo sapiens
[9] = biological target: T5, Type-1 angiotensin II receptor (Homo sapiens, UniProt P30556); assay: AT1 receptor antagonists, dose response, selectivity assay for APJ receptor antagonist project, cell-based, uHTS hits (AID 463214); type: functional;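 further: antagonist potency against angiotensin II stimulated AT1 response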
T5 sequence (P30556 whole entry): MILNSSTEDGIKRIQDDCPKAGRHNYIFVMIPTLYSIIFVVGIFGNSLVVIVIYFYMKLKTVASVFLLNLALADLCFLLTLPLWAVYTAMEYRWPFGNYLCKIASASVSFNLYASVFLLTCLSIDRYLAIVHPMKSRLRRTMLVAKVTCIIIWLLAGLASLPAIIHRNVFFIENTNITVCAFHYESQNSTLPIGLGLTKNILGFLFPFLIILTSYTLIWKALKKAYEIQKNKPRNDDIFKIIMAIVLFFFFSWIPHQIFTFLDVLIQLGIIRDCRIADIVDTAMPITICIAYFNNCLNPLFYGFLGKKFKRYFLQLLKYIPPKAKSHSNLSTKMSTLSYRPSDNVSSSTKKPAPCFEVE

[10] = system: Streptococcus sp. 'group A'; assay: growth inhibition of control SK(-) GAS strain, dose response, counter-screen for streptokinase expression inhibitor project, luminescence, kanamycin, BacTiterGlo, confirmation (AID 1900); type: functional, organism-based
BJ [11] = assay: cells; type: functional, cell-based; details: Homo sapiens
Streptokinase A = biological target: T6, Streptokinase A (Streptococcus pyogenes serotype M1, UniProt P10520); assay: S. pyogenes streptokinase expression inhibitors, potency, dose response, plasminogen activation absorbance, OD405 (AID 1914); type: functional, Streptococcus pyogenes M1 GAS;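 further: secreted streptokinase activity via plasminogen activation per viability signal from cell pellet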
T6 sequence (P10520 whole entry): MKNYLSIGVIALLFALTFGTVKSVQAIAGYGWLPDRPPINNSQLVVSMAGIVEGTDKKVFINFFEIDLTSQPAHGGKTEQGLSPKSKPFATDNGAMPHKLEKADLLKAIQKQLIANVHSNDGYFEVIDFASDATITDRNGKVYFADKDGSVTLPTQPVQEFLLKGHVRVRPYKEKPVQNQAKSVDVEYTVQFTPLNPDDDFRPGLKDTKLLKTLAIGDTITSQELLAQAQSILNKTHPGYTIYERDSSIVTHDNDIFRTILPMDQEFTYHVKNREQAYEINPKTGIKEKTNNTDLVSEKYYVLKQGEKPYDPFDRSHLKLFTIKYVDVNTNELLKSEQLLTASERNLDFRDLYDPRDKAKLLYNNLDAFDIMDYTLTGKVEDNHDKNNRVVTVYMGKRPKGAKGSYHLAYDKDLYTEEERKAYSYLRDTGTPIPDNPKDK

[12] = HepG2 cell cytotoxicity, dose response, cytotoxicity control, ATP luminescence, cherry-pick, activator set 2 (AID 1053143); type: functional, cell-based
Beta-galactosidase = Beta-galactosidase (Escherichia coli, UniProt Q8VNN2); assay: PubChem AID 485352; type: functional
Beta-galactosidase, sequence (Q8VNN2 whole entry): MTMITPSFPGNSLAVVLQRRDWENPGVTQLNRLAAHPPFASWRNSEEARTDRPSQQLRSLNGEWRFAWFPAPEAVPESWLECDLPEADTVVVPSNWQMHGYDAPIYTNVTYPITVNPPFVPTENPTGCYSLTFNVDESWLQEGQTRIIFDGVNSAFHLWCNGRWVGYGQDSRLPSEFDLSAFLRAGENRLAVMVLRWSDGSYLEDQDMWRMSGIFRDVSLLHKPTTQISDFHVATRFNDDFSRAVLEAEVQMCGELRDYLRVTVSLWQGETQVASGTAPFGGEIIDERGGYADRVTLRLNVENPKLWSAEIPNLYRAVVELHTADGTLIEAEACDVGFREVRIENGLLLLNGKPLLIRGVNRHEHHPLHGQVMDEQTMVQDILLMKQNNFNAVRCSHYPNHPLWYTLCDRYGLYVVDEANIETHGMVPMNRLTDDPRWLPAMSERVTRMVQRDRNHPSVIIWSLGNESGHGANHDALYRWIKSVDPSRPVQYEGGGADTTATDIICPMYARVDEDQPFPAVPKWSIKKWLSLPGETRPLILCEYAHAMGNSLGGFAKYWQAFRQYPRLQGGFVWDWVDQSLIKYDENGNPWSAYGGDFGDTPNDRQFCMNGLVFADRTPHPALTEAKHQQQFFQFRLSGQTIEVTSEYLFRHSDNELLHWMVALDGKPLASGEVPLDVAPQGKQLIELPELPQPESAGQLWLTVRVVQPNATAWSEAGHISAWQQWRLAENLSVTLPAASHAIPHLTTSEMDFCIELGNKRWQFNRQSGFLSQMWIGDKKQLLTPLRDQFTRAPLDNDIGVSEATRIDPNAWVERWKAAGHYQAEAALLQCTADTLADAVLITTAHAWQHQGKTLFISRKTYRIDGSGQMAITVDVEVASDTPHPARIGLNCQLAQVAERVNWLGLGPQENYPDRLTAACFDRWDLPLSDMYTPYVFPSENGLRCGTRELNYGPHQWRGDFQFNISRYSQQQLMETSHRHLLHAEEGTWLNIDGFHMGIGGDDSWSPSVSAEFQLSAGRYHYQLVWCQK

[13] = cytotoxicity in HEK-293T cells, dose response, cytotoxicity control for TCR NF-kB inhibitor project, luminescence, T-cell screen hits (AID 489026); type: functional, cell-based;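 further: cells exposed to compound about 14 hours before the viability readout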
BJ [14] = assay: cytotoxicity toward Ras-transformed BJeLR fibroblasts, dose response, cell-based, alamar blue fluorescence, cherrypicked samples (AID 2631); type: functional; details: Homo sapiens;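 further: confirmatory dose-response assay in RAS-dependent BJ fibroblasts engineered with TERT, LT and ST, with cytotoxicity read by fluorescence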
BJ [15] = assay: cytotoxicity toward BJ-TERT fibroblasts, dose response, cell-based, RAS-independent, luminescence (AID 1933); type: functional; details: Homo sapiens
BJ [16] = assay: cytotoxicity toward BJ-TERT-LT-ST fibroblasts, dose response, cell-based, RAS-independent, luminescence (AID 1935); type: functional; details: Homo sapiens;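 further: BJ fibroblasts immortalized with TERT plus LT and ST oncogenes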
Phospholipase D2 = Phospholipase D2 (Homo sapiens, UniProt O14939); assay: PLD2 inhibitor potency in cells, dose response (AID 602147); type: functional;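 further: cellular assay in HEK293 cells overexpressing GFP-tagged PLD2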
Phospholipase D2, sequence (O14939 whole entry): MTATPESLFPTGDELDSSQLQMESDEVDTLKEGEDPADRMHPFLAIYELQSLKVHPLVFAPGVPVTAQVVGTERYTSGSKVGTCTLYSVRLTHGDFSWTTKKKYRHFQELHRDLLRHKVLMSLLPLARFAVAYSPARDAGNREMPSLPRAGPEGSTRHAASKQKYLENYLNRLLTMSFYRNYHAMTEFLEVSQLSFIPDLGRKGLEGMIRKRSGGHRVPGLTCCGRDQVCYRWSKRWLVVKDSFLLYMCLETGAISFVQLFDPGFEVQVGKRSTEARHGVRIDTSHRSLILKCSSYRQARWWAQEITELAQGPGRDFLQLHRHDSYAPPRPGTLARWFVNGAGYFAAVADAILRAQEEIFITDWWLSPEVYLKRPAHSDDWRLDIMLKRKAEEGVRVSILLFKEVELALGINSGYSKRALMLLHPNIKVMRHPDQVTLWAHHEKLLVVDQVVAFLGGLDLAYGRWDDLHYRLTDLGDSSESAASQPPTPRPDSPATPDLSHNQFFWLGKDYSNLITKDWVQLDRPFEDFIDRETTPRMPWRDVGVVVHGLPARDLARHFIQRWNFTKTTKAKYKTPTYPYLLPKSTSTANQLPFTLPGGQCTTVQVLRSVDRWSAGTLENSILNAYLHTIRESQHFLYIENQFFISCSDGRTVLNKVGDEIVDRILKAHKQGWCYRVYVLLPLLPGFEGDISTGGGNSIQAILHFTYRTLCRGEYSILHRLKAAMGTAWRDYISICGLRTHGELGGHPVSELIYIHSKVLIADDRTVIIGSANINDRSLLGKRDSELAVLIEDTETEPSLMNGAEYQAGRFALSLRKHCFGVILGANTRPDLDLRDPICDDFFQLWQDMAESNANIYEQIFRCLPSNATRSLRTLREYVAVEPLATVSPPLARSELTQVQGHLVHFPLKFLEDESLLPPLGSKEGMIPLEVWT

Phospholipase D1 = biological target: T7, Phospholipase D1 (Homo sapiens, UniProt Q13393); assay: PLD1 inhibitor potency in cells, dose response (AID 602151); type: functional;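 further: cellular PLD1 assay in Calu-1 cells stimulated with PMA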
T7 sequence (Q13393 whole entry): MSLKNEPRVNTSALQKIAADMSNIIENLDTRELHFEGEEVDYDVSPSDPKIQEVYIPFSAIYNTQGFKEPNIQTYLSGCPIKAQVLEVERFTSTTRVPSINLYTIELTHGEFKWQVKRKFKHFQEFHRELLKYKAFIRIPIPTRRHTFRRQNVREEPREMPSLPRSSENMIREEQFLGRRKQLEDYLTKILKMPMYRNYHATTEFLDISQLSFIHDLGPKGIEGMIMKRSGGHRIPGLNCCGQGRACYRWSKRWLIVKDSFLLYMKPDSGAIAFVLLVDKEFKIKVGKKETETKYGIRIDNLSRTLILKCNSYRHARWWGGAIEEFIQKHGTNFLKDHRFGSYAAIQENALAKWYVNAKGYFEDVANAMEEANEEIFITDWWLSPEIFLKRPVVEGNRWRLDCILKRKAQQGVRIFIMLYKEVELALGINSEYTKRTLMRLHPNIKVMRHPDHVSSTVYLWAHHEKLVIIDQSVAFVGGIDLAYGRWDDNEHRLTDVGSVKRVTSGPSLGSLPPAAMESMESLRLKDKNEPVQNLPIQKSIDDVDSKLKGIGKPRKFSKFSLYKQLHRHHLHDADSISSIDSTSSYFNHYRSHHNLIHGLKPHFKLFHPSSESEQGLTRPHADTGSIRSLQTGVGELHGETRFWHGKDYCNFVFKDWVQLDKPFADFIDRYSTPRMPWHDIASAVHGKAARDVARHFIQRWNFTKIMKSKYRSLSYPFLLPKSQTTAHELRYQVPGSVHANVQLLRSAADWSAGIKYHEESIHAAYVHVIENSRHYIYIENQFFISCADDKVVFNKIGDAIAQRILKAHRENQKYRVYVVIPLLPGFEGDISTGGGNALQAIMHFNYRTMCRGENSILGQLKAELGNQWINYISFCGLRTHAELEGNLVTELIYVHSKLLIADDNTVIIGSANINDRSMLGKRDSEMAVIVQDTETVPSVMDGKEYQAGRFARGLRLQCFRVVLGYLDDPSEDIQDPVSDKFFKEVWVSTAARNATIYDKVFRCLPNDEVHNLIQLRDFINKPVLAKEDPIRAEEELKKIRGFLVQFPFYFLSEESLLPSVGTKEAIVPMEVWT

COc1ccccc1OCc1nc(-c2ccccc2Cl)no1
IC50 [1]: 2.1 µM (active) | IC50 (Caspase-3 [2]): 2.9 µM (active) | IC50 [3]: 2.08 µM (active) | IC50 [4]: 4.7 µM (active) | IC50 (Caspase-3 [5]): 3.23 µM (active) | IC50 [6]: 4.9 µM (active) | IC50 [7]: 2 µM (active)

COc1cc(/C=C/c2ccc3cccc(O)c3n2)cc(OC)c1OC
EC50 (Streptococcus): 15.6 µM (active) | EC50 [8]: 1.5 µM (active) | IC50 [9]: 6.2 µM (active) | EC50 [10]: 2.28 µM (active) | EC50 (BJ [11]): 47.8 µM (inconclusive) | EC50 (Streptokinase A): > 150 µM (not active) | AC50 [12]: 9.5 µM (active) | EC50 (Beta-galactosidase): > 40 µM (inactive) | IC50 [13]: > 80 µM (inactive) | EC50 (BJ [14]): 2.96 µM (inconclusive) | EC50 (BJ [15]): 1.26 µM (active) | EC50 (BJ [16]): 1.2 µM (inconclusive)

O=C(NCCN1CCC2(CC1)C(=O)NCN2c1cccc(F)c1)c1ccc2c(c1)C(=O)OC2=O
IC50 (Phospholipase D2): 0.265 µM (active) | IC50 (Phospholipase D1): 5.55 µM (active)
